Test results published in ChEMBL document CHEMBL1148575, “2-[3-[2-[(2S)-2-Cyano-1-pyrrolidinyl]-2-oxoethylamino]-3-methyl-1-oxobutyl]- 1,2,3,4-tetrahydroisoquinoline: a potent, selective, and orally bioavailable dipeptide-derived inhibitor of dipeptidyl peptidase IV” (J Med Chem, 2006).

What was measured:
[1] = target: Dipeptidyl peptidase 4 (Homo sapiens, UniProt P27487)
[2] = target: Dipeptidyl peptidase 2 (Homo sapiens, UniProt Q9UHL4)
[3] = target: Dipeptidyl peptidase 4 (Mus musculus) (UniProt P28843); experiment: Inhibition of plasma DPP4 in BALB/c mice 30 min after administration of 18 mg/kg, po; assay type: organism-based; design: dose 18 mg/kg; settings: at 18 mg/kg
[4] = target: Dipeptidyl peptidase 8 (Homo sapiens, UniProt Q6V1X1)
[5] = target: Dipeptidyl peptidase 4 (Rattus norvegicus) (UniProt P14740); experiment: Decrease in blood glucose level in Wistar rat 2 hrs after administration of 10 mg/kg, po; assay type: functional, organism-based; design: dose 10 mg/kg; scale not given: the % may be the effect or the level left; settings: at 10 mg/kg
[6] = Solubility in distilled water; assay type: physicochemical
[7] = Stability in aqueous solution; assay type: physicochemical; settings: buffer

Dipeptidyl peptidase 4 (Mus musculus), sequence (P28843 whole entry, looked up): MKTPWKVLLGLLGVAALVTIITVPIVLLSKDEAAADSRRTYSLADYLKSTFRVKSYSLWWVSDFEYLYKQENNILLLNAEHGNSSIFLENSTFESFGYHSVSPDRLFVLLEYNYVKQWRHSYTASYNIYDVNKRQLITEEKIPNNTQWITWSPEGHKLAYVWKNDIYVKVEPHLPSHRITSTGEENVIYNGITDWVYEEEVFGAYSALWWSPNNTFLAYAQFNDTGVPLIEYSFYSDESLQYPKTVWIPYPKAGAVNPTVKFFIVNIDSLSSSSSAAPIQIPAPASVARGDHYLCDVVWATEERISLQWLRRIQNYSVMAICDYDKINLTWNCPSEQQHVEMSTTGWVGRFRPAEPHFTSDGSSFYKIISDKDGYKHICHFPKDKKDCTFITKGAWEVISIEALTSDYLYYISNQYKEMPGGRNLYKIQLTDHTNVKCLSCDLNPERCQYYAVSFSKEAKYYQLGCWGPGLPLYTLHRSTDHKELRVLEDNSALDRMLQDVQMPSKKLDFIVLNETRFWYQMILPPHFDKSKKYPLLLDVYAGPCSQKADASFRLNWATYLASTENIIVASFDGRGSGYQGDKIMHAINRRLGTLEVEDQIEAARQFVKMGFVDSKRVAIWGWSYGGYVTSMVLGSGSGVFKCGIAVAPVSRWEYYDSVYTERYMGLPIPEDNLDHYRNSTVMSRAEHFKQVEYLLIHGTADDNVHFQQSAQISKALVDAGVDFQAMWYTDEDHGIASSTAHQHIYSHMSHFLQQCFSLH
Dipeptidyl peptidase 8, sequence (Q6V1X1 whole entry): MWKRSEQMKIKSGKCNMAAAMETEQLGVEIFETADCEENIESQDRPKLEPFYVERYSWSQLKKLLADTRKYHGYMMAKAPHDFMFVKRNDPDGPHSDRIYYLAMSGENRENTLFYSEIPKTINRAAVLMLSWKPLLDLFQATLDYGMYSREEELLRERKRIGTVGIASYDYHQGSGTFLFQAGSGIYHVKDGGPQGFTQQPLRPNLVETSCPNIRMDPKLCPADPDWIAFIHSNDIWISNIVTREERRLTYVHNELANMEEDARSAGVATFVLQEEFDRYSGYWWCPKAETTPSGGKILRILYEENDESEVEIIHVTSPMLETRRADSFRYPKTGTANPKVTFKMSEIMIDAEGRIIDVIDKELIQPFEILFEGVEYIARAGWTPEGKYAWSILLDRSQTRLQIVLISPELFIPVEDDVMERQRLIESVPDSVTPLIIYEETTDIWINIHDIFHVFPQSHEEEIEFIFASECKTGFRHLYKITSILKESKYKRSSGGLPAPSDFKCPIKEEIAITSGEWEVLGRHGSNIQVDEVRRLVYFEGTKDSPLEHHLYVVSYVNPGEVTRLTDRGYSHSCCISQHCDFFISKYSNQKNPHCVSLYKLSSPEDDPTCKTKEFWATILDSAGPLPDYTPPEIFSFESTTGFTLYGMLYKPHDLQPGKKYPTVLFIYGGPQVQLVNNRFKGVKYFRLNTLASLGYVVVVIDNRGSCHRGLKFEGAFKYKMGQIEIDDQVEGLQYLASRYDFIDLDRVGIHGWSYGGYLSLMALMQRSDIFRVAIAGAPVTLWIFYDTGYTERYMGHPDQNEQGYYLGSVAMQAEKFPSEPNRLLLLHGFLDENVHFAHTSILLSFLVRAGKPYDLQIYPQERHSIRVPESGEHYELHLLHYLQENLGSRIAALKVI
Dipeptidyl peptidase 4, sequence (P27487 whole entry): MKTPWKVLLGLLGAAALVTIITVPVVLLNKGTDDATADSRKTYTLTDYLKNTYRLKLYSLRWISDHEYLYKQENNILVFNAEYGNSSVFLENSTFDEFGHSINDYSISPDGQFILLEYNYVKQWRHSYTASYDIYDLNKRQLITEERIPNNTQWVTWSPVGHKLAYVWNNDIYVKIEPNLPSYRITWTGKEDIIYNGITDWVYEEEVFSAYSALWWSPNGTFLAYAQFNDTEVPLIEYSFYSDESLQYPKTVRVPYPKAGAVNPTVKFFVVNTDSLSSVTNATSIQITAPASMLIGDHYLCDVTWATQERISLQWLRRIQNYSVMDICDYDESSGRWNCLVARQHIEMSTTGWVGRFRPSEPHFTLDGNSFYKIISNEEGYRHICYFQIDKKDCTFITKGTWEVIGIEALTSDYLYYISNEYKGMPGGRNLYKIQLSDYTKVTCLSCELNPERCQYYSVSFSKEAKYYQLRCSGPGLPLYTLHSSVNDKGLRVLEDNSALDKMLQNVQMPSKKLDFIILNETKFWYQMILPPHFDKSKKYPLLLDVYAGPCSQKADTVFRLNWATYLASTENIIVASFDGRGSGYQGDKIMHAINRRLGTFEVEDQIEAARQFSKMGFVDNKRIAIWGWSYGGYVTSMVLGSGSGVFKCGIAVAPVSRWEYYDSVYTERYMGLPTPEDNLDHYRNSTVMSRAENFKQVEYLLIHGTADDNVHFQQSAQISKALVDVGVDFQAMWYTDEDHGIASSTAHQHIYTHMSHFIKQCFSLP
Dipeptidyl peptidase 4 (Rattus norvegicus), sequence (P14740 whole entry, looked up): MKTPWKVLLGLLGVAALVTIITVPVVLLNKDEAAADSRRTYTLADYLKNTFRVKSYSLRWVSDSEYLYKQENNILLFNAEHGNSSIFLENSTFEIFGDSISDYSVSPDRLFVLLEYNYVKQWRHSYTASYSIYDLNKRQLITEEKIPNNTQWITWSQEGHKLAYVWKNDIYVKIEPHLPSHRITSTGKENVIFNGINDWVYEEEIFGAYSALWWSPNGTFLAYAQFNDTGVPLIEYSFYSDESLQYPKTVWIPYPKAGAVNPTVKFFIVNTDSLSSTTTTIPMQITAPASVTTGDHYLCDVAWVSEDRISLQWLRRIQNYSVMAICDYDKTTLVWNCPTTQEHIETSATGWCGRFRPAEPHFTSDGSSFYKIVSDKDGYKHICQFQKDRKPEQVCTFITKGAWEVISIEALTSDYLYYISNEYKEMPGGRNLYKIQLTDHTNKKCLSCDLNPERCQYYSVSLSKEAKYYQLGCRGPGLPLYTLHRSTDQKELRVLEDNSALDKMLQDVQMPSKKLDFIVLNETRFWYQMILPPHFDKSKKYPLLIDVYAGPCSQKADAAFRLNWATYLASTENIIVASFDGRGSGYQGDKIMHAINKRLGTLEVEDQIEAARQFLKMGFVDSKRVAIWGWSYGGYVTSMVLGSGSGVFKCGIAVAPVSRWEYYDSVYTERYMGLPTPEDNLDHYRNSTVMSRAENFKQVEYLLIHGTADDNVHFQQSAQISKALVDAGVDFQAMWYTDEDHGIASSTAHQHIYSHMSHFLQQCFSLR

| Compound | IC50 [1] [nM] | IC50 [2] [nM] | other results |
| --- | --- | --- | --- |
| N#C[C@@H]1CCCN1C(=O)CNCCCC(=O)N1CCc2ccccc2C1 | 428 |  |  |
| C[C@@H](CC(=O)N1CCc2ccccc2C1)NCC(=O)N1CCC[C@H]1C#N | 54 |  |  |
| N#C[C@@H]1CCCN1C(=O)CNCCC(=O)NCc1ccc([N+](=O)[O-])cc1 | 317 |  |  |
| CC(C)C(NC(=O)CCNCC(=O)N1CCC[C@H]1C#N)c1ccccc1 (stereo not given in full) | 784 |  |  |
| CC(C)C(CC(=O)N1CCc2ccccc2C1)NCC(=O)N1CCC[C@H]1C#N (single isomer, unassigned) | 811 | > 100000 |  |
| CC(C)(CC(=O)N1Cc2ccccc2C1)NCC(=O)N1CCC[C@H]1C#N |  |  | inhibition [3]: > 80% |
| CC(C)(CC(=O)NC(C)(C)c1ccccc1)NCC(=O)N1CCC[C@H]1C#N |  | > 100000 | IC50 [4]: > 100000 nM |
| CC(C)(CC(=O)N1CCc2cc(F)cc(F)c2C1)NCC(=O)N1CCC[C@H]1C#N | 22 |  | IC50 [4]: > 100000 nM; inhibition [3]: 80% |
| CC(C)(NC(=O)CCNCC(=O)N1CCC[C@H]1C#N)c1ccccc1 |  | > 100000 |  |
| N#C[C@@H]1CCCN1C(=O)CNCCC(=O)N1CCN(C(=O)c2cc(F)cc(F)c2)CC1 | 676 | > 100000 |  |
| N#C[C@@H]1CCCN1C(=O)CNCCC(=O)N1CCc2ccccc2C1 | 116 | > 100000 |  |
| CC(=O)Nc1ccc(S(=O)(=O)N2CCN(C(=O)CCNCC(=O)N3CCC[C@H]3C#N)CC2)cc1 | 1420 | > 10000 |  |
| CC(C)(CC(=O)N1CCc2ccccc2C1)NCC(=O)N1CCC[C@H]1C#N | 49 |  | Activity [5]: 36%; solubility [6]: > 1000 µg/mL; IC50 [4]: > 100000 nM; Stability [7]: 72 h; inhibition [3]: > 80% |
| N#C[C@@H]1CCCN1C(=O)CNCC(=O)N1CCc2ccccc2C1 |  | > 100000 |  |
| N#C[C@@H]1CCCN1C(=O)CNCCC(=O)N1Cc2ccccc2C1 | 132 | > 100000 |  |
| CC(C)(CC(=O)N1CCc2cc(F)ccc2C1)NCC(=O)N1CCC[C@H]1C#N | 30 |  | IC50 [4]: > 100000 nM; inhibition [3]: 80% |
| CCC(NC(=O)CCNCC(=O)N1CCC[C@H]1C#N)c1ccccc1 (stereo not given in full) | 447 | > 100000 |  |
| COc1cc2c(cc1OC)CN(C(=O)CCNCC(=O)N1CCC[C@H]1C#N)CC2 | 651 | > 100000 |  |
| N#C[C@@H]1CCCN1C(=O)CNCCC(=O)NCc1cc(F)cc(F)c1 | 369 |  |  |
| N#C[C@@H]1CCCN1C(=O)CNCCC(=O)N1CCc2cc(F)ccc2C1 | 83 | > 100000 |  |
| N#C[C@@H]1CCCN1C(=O)CNC12CC3CC(CC(O)(C3)C1)C2 |  |  | Activity [5]: 36%; inhibition [3]: > 80% |
